The test system of data set [1] is F. magna. Kind of data set: Agar dilution MIC (CLSI reference method). The format is cell-based. The note with it: Finegoldia magna, ATCC15794; F. magna ATCC 15794. For orientation: In agar dilution the substance is mixed into plates at graded concentrations.
The test system of data set [2] is P. acnes. Kind of data set: Agar dilution MIC (CLSI reference method). The format is cell-based. The settings on record: Cutibacterium acnes.
Data set [3] deals with P. granulosum. Kind of data set: Agar dilution MIC (CLSI reference method). The note with it: P. granulosum ATCC 25746. The format is cell-based.
Data set [4] deals with G. vaginalis. Kind of data set: Agar dilution MIC (CLSI reference method). The format is cell-based. The settings on record: Gardnerella vaginalis.
The subject of data set [5] is S. aureus. Kind of data set: Agar dilution MIC (CLSI reference method). The format is cell-based. The settings on record: Staphylococcus aureus, ATCC29213; S. aureus ATCC 29213. The method, then:
Susceptibility testing was performed by the agar dilution reference method (radezolid, linezolid, and clindamycin) and broth microdilution method (all agents) as described by the Clinical and Laboratory Standards Institute (CLSI).
For the agar dilution method, Brucella agar (BBL, 211086) was prepared according to the manufacturer's instructions and cooled to 48-50° C. in a water bath. Once the agar was cooled, it was supplemented with 10 mL of hemin+vitamin K1 Solution (Remel, R450951), 1 mL of 1 mg/mL vitamin K1 working solution (Sigma, V3501), and 50 mL laked sheep blood (Remel, R54004). The media was dispensed into 50 mL centrifuge tubes and held at 48-50° C. […] The diluted antimicrobial agents were added to the dispensed media, gently mixed, and poured into sterile petri dishes. Once hardened, the plates were held in anaerobic jars at room temperature and used the following day. […]
On the day of testing, a 0.5 McFarland equivalent of each isolate was prepared in Brucella broth with hemin+vitamin K1. […] BRU plates and those containing compound were incubated at 35° C. in an anaerobic environment for 24 hours, read, and re-incubated for an additional 24 hours followed by a final reading. […] Following incubation, MICs were determined as the lowest concentration showing a marked reduction in growth or no growth compared to the growth control plate.

Data set [6] deals with B. fragilis. Kind of data set: Broth microdilution MIC. The settings on record: Bacteroides fragilis, ATCC25285; B. fragilis ATCC 25285. The format is cell-based. In general terms: In broth dilution the organism is exposed to a series of concentrations in liquid medium.
The subject of data set [7] is F. magna. As to the kind of experiment: Broth microdilution MIC. The format is cell-based. The settings on record: Finegoldia magna, ATCC15794; F. magna ATCC 15794.
Data set [8] has as its system P. granulosum. Kind of data set: Broth microdilution MIC. The note with it: P. granulosum ATCC 25746. The format is cell-based.
The test system of data set [9] is G. vaginalis. As to the kind of experiment: Broth microdilution MIC. The format is cell-based. The note with it: Gardnerella vaginalis.
Data set [10] has as its system Enterococcus faecalis. Kind of data set: MIC against ribosome-based resistance phenotypes. The format is cell-based. The settings on record: ATCC29212, Enterococcus faecalis ATCC29212-P5, Lin-R (G2576U), read-out: Minimum Inhibitory Concentration (MIC). From the text: (§1) Furthermore, the antibiotic compounds can be assayed for anti-proliferative or anti-infective properties on a cellular level. For example, where the target organism is a microorganism, the activity of compounds of interest can be assayed by growing the microorganisms of interest in media either containing or lacking the compound. Growth inhibition can be indicative that the molecule could be acting as a protein synthesis inhibitor. […] For this purpose, a panel of bacterial strains can be assembled to include a variety of target pathogenic species, some containing resistance mechanisms that have been characterized. Use of such a panel of organisms permits the determination of structure-activity relationships not only in regards to potency and spectrum, but also with a view to obviating resistance mechanisms.

The subject of data set [11] is Staphylococcus aureus. As to the kind of experiment: MIC against ribosome-based resistance phenotypes. The format is cell-based. The note with it: Staphylococcus aureus A7820, Lin-R (G2576U) + Mac-R (ErmC), read-out: Minimum Inhibitory Concentration (MIC).
Source text: as §1

Data set [12] has as its system Enterococcus faecium. As to the kind of experiment: MIC against ribosome-based resistance phenotypes. The format is cell-based. The note with it: Enterococcus faecium A6349; VanA + Lin-R (G2576U); read-out: Minimum Inhibitory Concentration (MIC).
Source text: as §1, with “mechanisms. The assays can be performed in microtiter trays according to conventional methodologies as published by The National Committee for Clinical Laboratory Standards (NCCLS) guidelines (NCCLS. M7-A5-Methods for Dilution Antimicrobial Susceptibility Tests for Bacteria That Grow Aerobically; Approved Standard-Fifth Edition. NCCLS Document M100-S12/M7 (ISBN 1-56238-394-9)).” for “mechanisms.”

Data set [13] in a line: Long-term rat safety study. The format is in vivo. The note with it: rat, in vivo, 100 mg/kg/day. An excerpt:
There was 100% survival in all dose groups.

Where [14] appears, read: ATCC14018, G. vaginalis ATCC 14018.
Setting [15] is: ATCC49145, G. vaginalis ATCC 49145.

Converted amounts (≈) assume the structure as drawn.

In the case of `CC(=O)NC[C@H]1CN(c2ccc(N3CCOCC3)c(F)c2)C(=O)O1` [Linezolid, linezolid], the MIC in [1] stood at 2 µg/mL (≈ 5.93 µM); in data set [2] (ATCC11827, P. acnes ATCC 11827), 0.5 µg/mL (≈ 1.48 µM); in data set [2] (ATCC11828, P. acnes ATCC 11828), 0.5 µg/mL (≈ 1.48 µM); in [2] (ATCC29399, P. acnes ATCC 29399), 0.5 µg/mL (≈ 1.48 µM); in [3], 2 µg/mL (≈ 5.93 µM); in [4] (setting [14]) it was 0.5 µg/mL (≈ 1.48 µM). For the same compound, the MIC in data set [4] (setting [15]) was 0.5 µg/mL (≈ 1.48 µM); in [5], 2 µg/mL (≈ 5.93 µM); in data set [6], 2 µg/mL (≈ 5.93 µM); in data set [7] it was 1 µg/mL (≈ 2.96 µM); in [8], 1 µg/mL (≈ 2.96 µM); in data set [9] (setting [14]), 0.5 µg/mL (≈ 1.48 µM). The MIC turned out to be 0.5 µg/mL (≈ 1.48 µM) in [9] (setting [15]), 32 µg/mL (≈ 94.9 µM) in data set [10], 64 µg/mL in data set [11] and 16 µg/mL in data set [12]. Also, the “cellularity of sternal and femoral bone marrow” value in data set [13] is “decreased cellularity of sternal and femoral bone marrow”. Also, the “red cell mass, absolute reticulocyte and neutrophil counts” value in data set [13] is “decreased red cell mass, absolute reticulocyte and neutrophil counts”.

Values taken from patent publication US10471046B2, “Method for treating, preventing, or reducing the risk of skin infection” (Melinta Subsidiary Corp., priority 2014, dated 2019).
